The values below are quoted from earlier work in patent US7772228B2, “Method for treatment of bacterial infections with once or twice-weekly administered rifalazil” (priority 1998, dated 2010).

The data set has as its system M. tuberculosis. The conditions noted are these: depending on the degree of resistance to rifampin; cited from earlier work.

The structures appear in SMILES notation. Where only a bound is given, the exact number is not on record here.

In the case of `CO[C@H]1/C=C/O[C@@]2(C)Oc3c(C)c(O)c4c(O)c(c(/C=N/N5CCN(C)CC5)c(O)c4c3C2=O)NC(=O)/C(C)=C\C=C\[C@H](C)[C@H](O)[C@@H](C)[C@@H](O)[C@@H](C)[C@H](OC(C)=O)[C@@H]1C` [Rifampin, rifampin, reference compound], the “MICs for MTB, range” value is below 0.002 to 4.0 µg/mL.
